Assay [1] deals with Human pancreatic cancer cell line AsPC-1. Briefly: Measurement of AsPC-1 cell growth inhibition (AsPC-1 CGI). It is filed as cell-based. The note with it: 96 h. On the procedure:
Measurement of AsPC-1 Cell Growth Inhibition (AsPC-1 CGI)
Test compounds were serially diluted with dimethyl sulfoxide, and 200 nL was then dispensed to a U-bottom 96-well plate using Labcyte Echo. Human pancreatic cancer cell line AsPC-1 was suspended in RPMI-1640 medium supplemented with 15% fetal bovine serum to prepare a cell suspension at 1000 cells/100 μL. The cell suspension was dispensed to a plate containing a test compound at 100 μL per well and incubated at 37° C. in a 5% carbon dioxide gas incubator. 96 hours later, 80 μL of CellTiter-Glo (Promega) was added to each well and […] was measured.

The target of assay [2] is T1, Kras and SOS1 (biotin-tagged human Kras loaded with GDP, His-tagged human SOS1) (Homo sapiens, UniProt P01116, G12D).
T1 construct: made in house; host or cells: E. coli (stated for Kras only)
T1 sequence (P01116 1-188 isoform P01116-2 G12D): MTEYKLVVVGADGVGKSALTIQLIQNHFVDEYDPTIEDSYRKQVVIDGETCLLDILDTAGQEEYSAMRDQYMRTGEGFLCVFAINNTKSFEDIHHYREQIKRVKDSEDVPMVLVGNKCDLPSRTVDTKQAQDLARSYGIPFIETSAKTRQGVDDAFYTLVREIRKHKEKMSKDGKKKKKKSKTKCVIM
Put plainly: Protein-protein interaction inhibition between Kras and SOS1 (KrasGl2D-SOS PPI) using AlphaScreen. The format is binding. Particulars: AlphaScreen; biotin-tagged human Kras loaded with GDP, His-tagged human SOS1; read-out: KRAS G12D-SOS PPI IC50. An outline of the steps: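 Energy transfer from nickel-chelate donor beads bound to His-SOS1 to streptavidin acceptor beads bound to biotin-Kras, expressed in E. coli and loaded with GDP after purification, was monitored. Donors were excited at 680 nm; singlet oxygen reaching acceptors gave emission read at 520-620 nm.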

The text below walks through data of patent publication US12371454B2, “Cyclic peptide compound having Kras inhibitory action” (priority 2019, dated 2025).

Starred links: 1 amine or outer side, 2 acyl side, 3 side chain; linkers in the order of their positions; H or OH if unused. Positions of bridges follow the written chain, without caps; N, C: chain ends. Non-standard residues stand in square brackets, D forms with d. Residues, ends and D or L forms follow the SMILES beside them. *: point of attachment. hPhe(3,5-F2-4-CF3) = N[C@@H](CCc1cc(F)c(C(F)(F)F)c(F)c1)C(=O)O; hPhe(3-Cl-4-CF3) = N[C@@H](CCc1ccc(C(F)(F)F)c(Cl)c1)C(=O)O; hPhe(3-F,4-CF3) = N[C@@H](CCc1ccc(C(F)(F)F)c(F)c1)C(=O)O; NMePhe(4-CF3) = CN[C@@H](Cc1ccc(C(F)(F)F)cc1)C(=O)O; X63 = O=C(C(CCc1ccc(C(F)(F)F)c(Cl)c1)N[*:1])[*:2]; NMePhe(4-Me) = CN[C@@H](Cc1ccc(C)cc1)C(=O)O; NMeNle(6-CHF2) = CN[C@@H](CCCCC(F)F)C(=O)O; X6 = CCN([C@@H](CC1CCCCC1)C(=O)[*:2])[*:1]; NMedβ3hAla = C[C@H](CC(=O)[*:2])N(C)[*:1]; NMeAla(cPent) = CN[C@@H](CC1CCCC1)C(=O)O; NMeGly(cPent) = CN[C@H](C(=O)O)C1CCCC1; NMe4Pal = CN[C@@H](Cc1ccncc1)C(=O)O; NMeY = CN[C@@H](Cc1ccc(O)cc1)C(=O)O; X64 = CN(C)CCOCCN(CC(=O)[*:2])[*:1]; NMeCha = CN[C@@H](CC1CCCCC1)C(=O)O; NMeChg = CN[C@H](C(=O)O)C1CCCCC1; NMeI = CC[C@H](C)[C@H](NC)C(=O)O; NMeD = CN[C@@H](CC(=O)O)C(=O)O; NMeL = CN[C@@H](CC(C)C)C(=O)O; NMeAc5c = CNC1(C(=O)O)CCCC1; NMeV = CN[C@H](C(=O)O)C(C)C; NMeA = CN[C@@H](C)C(=O)O; Piperidide = C1CCN(*)CC1; Pyrrolidide = C1CCN(*)C1; Ac5c = NC1(C(=O)O)CCCC1; Aze = O=C(O)[C@@H]1CCN1; Sar = CNCC(=O)O

As for `CC[C@H](C)[C@@H]1NC(=O)[C@H](CC(C)C)N(C)C(=O)C[C@@H](C)N(C)C(=O)[C@H](CC(C)C)NC(=O)C2(CCCC2)N(C)C(=O)[C@H](CC(C)C)NC(=O)[C@H](CCc2ccc(C(F)(F)F)c(F)c2)NC(=O)CN(C)C(=O)[C@H](CC2CCCCC2)N(C)C(=O)CN(C)C(=O)CN(C)C1=O` [Compound 2] (cyclo(I[Sar][Sar][NMeCha][Sar][hPhe(3-F,4-CF3)]L[NMeAc5c]L[NMedβ3hAla][NMeL])), the half-maximal inhibitory concentration (IC50) in assay [1] fell in the range of 0.1 to 0.5 µM.
For the molecule `CC[C@H](C)[C@@H]1NC(=O)[C@H](CC(C)C)N(C)C(=O)C[C@@H](C(=O)N2CCCCC2)N(C)C(=O)[C@H](C(C)C)N(C)C(=O)C2(CCCC2)NC(=O)[C@@H]2CCCN2C(=O)[C@H](CCc2ccc(C(F)(F)F)c(Cl)c2)NC(=O)CN(C)C(=O)[C@H](CC2CCCCC2)N(CC)C(=O)[C@@H]2CCN2C(=O)[C@H](C)N(C)C1=O` [Compound 23] ([NMeL]I[NMeA][Aze][X6][Sar][hPhe(3-Cl-4-CF3)]P[Ac5c][NMeV][NMeD]-Piperidide; lactam N-11), the IC50 in assay [1] is 0.1 to 0.5 µM.
Regarding `CC[C@H](C)[C@@H]1NC(=O)[C@H](CC(C)C)N(C)C(=O)C[C@@H](C(=O)N2CCCCC2)N(C)C(=O)[C@H](C2CCCCC2)N(C)C(=O)C2(CCCC2)NC(=O)[C@H](Cc2ccncc2)N(C)C(=O)[C@H](CCc2ccc(C(F)(F)F)c(Cl)c2)NC(=O)CN(C)C(=O)[C@H](CC2CCCCC2)N(C)C(=O)CN(C)C(=O)CN(C)C1=O` [Compound 36] ([NMeL]I[Sar][Sar][NMeCha][Sar][hPhe(3-Cl-4-CF3)][NMe4Pal][Ac5c][NMeChg][NMeD]-Piperidide; lactam N-11), the IC50 in assay [1] was in the range of 0.1 to 0.5 µM.
As to `CC[C@H](C)[C@@H]1NC(=O)[C@H](CC2CCCC2)N(C)C(=O)C[C@@H](C(=O)N2CCCCC2)N(C)C(=O)[C@H](C(C)C)N(C)C(=O)C2(CCCC2)NC(=O)[C@@H]2CCCN2C(=O)[C@H](CCc2ccc(C(F)(F)F)c(Cl)c2)NC(=O)CN(C)C(=O)[C@H](CC2CCCCC2)N(C)C(=O)[C@@H]2CCN2C(=O)[C@H](C)N(C)C1=O` [Compound 37] ([NMeAla(cPent)]I[NMeA][Aze][NMeCha][Sar][hPhe(3-Cl-4-CF3)]P[Ac5c][NMeV][NMeD]-Piperidide; lactam N-11), the IC50 in assay [1] was 0.1 to 0.5 µM.
Turning to `CC[C@H](C)[C@@H]1NC(=O)[C@H](CC(C)C)N(C)C(=O)C[C@@H](C)N(C)C(=O)[C@H](C2CCCCC2)N(C)C(=O)C2(CCCC2)NC(=O)[C@@H]2CCCN2C(=O)[C@H](CCc2cc(F)c(C(F)(F)F)c(F)c2)NC(=O)CN(C)C(=O)[C@H](Cc2ccc(C(F)(F)F)cc2)N(C)C(=O)[C@@H]2CCN2C(=O)[C@H](C)N(C)C1=O` [Compound 39] (cyclo([Ac5c][NMeChg][NMedβ3hAla][NMeL]I[NMeA][Aze][NMePhe(4-CF3)][Sar][hPhe(3,5-F2-4-CF3)]P)), in assay [1], the IC50 fell in the range of 0.1 to 0.5 µM.
`CC[C@H](C)[C@@H]1NC(=O)[C@H](CC(C)C)N(C)C(=O)C[C@@H](C(=O)N2CCCC2)N(C)C(=O)[C@H]([C@@H](C)CC)N(C)C(=O)C2(CCCC2)NC(=O)[C@@H]2CCCN2C(=O)[C@H](CCc2ccc(C(F)(F)F)c(F)c2)NC(=O)CN(C)C(=O)[C@H](Cc2ccc(C)cc2)N(C)C(=O)[C@@H]2CCN2C(=O)[C@H](C)N(C)C1=O` [Compound 44] ([NMeL]I[NMeA][Aze][NMePhe(4-Me)][Sar][hPhe(3-F,4-CF3)]P[Ac5c][NMeI][NMeD]-Pyrrolidide; lactam N-11) had a half-inhibitory concentration (IC50) in assay [1] of 0.02 to 0.05 µM.
As to `CC[C@H](C)[C@@H]1NC(=O)[C@H](CC(C)C)N(C)C(=O)C[C@@H](C)N(C)C(=O)[C@H](C2CCCC2)N(C)C(=O)C2(CCCC2)NC(=O)[C@@H]2CCCN2C(=O)[C@H](CCc2ccc(C(F)(F)F)c(F)c2)NC(=O)CN(C)C(=O)[C@H](CC2CCCCC2)N(C)C(=O)[C@@H]2CCN2C(=O)[C@H](C)N(C)C1=O` [Compound 49] (cyclo([Ac5c][NMeGly(cPent)][NMedβ3hAla][NMeL]I[NMeA][Aze][NMeCha][Sar][hPhe(3-F,4-CF3)]P)), the half-inhibitory concentration (IC50) in assay [1] lay in the range of 0.02 to 0.05 µM.
In assay [1], `CC[C@H](C)[C@@H]1NC(=O)[C@H](C2CCCCC2)N(C)C(=O)C[C@@H](C(=O)N2CCCCC2)N(C)C(=O)[C@H](C(C)C)N(C)C(=O)C2(CCCC2)NC(=O)[C@@H]2CCCN2C(=O)[C@H](CCc2ccc(C(F)(F)F)c(Cl)c2)NC(=O)CN(C)C(=O)[C@H](CC2CCCCC2)N(C)C(=O)[C@@H]2CCN2C(=O)[C@H](C)N(C)C1=O` [Compound 58] ([NMeChg]I[NMeA][Aze][NMeCha][Sar][hPhe(3-Cl-4-CF3)]P[Ac5c][NMeV][NMeD]-Piperidide; lactam N-11) displayed an IC50 of 0.1 to 0.5 µM.
The same measure, in the same setting: for `CC[C@H](C)[C@@H]1NC(=O)[C@H](CC(C)C)N(C)C(=O)C[C@@H](C(=O)N2CCCCC2)N(C)C(=O)[C@H](C(C)C)N(C)C(=O)C2(CCCC2)NC(=O)[C@@H]2CCCN2C(=O)[C@H](CCc2ccc(C(F)(F)F)c(Cl)c2)NC(=O)CN(C)C(=O)[C@H](CCCCC(F)F)N(C)C(=O)[C@@H]2CCN2C(=O)[C@H](C)N(C)C1=O` [Compound 78] ([NMeL]I[NMeA][Aze][NMeNle(6-CHF2)][Sar][hPhe(3-Cl-4-CF3)]P[Ac5c][NMeV][NMeD]-Piperidide; lactam N-11) the value was 0.1 to 0.5 µM.
On to `CC[C@H](C)[C@@H]1NC(=O)[C@H](CC(C)C)N(C)C(=O)C[C@@H](C)N(C)C(=O)[C@H]([C@@H](C)CC)N(C)C(=O)C2(CCCC2)NC(=O)[C@@H]2CCCN2C(=O)[C@H](CCc2ccc(C(F)(F)F)c(Cl)c2)NC(=O)CN(C)C(=O)[C@H](C2CCCC2)N(C)C(=O)[C@@H]2CCN2C(=O)[C@H](C)N(C)C1=O` [Compound 79] (cyclo([Ac5c][NMeI][NMedβ3hAla][NMeL]I[NMeA][Aze][NMeGly(cPent)][Sar][hPhe(3-Cl-4-CF3)]P)), for which, in assay [1], the concentration for half-maximal inhibition (IC50) lay within 0.02 to 0.05 µM.
Consider `CC[C@H](C)[C@@H]1NC(=O)[C@H](CC(C)C)N(C)C(=O)C[C@@H](C(=O)N2CCCCC2)N(C)C(=O)[C@H](C2CCCCC2)N(C)C(=O)C2(CCCC2)NC(=O)[C@H](Cc2ccc(OC)cc2)N(C)C(=O)[C@H](CCc2ccc(C(F)(F)F)c(Cl)c2)NC(=O)CN(C)C(=O)[C@H](CC2CCCCC2)N(C)C(=O)CN(C)C(=O)CN(C)C1=O` [Compound 2171] ([NMeL]I[Sar][Sar][NMeCha][Sar][hPhe(3-Cl-4-CF3)][NMeY](Me)[Ac5c][NMeChg][NMeD]-Piperidide; lactam N-11), for which the IC50 in assay [2] amounted to 0.12 µM.
`CC[C@H](C)[C@@H]1NC(=O)[C@H](CC(C)C)N(C)C(=O)C[C@@H](C(=O)N(C)C)N(C)C(=O)[C@H]([C@@H](C)CC)N(C)C(=O)C2(CCCC2)NC(=O)CN(CCOCCN(C)C)C(=O)C(CCc2ccc(C(F)(F)F)c(Cl)c2)NC(=O)CN(C)C(=O)[C@H](Cc2ccc(C)cc2)N(C)C(=O)[C@@H]2CCN2C(=O)[C@H](C)N(C)C1=O` (stereo partly drawn) [Compound 2181, (3S,6S,9S,13S,16S,31S,34S)-25-[2-[3-chloro-4-(trifluoromethyl)phenyl]ethyl]-23-[2-[2-(dimethylamino)ethoxy]ethyl]-9-isobutyl-N,N,3,4,10,14,17,29,32-nonamethyl-6,16-bis[(1S)-1-methylpropyl]-2,5,8,11,15,18,21,24,27,30,33-undecaoxo-31-(p-tolylmethyl)spiro[1,4,7,10,14,17,20,23,26,29,32-undecazabicyclo[32.2.0]hexatriacontane-19,1′-cyclopentane]-13-carboxamide] ([NMeL]I[NMeA][Aze][NMePhe(4-Me)][Sar][X63][X64][Ac5c][NMeI][NMeD]-NMe2; lactam N-11): in assay [2], the IC50 turned out to be 0.0055 µM.
